Test results reported in publication PMC4208094, “Optical control of insulin release using a photoswitchable sulfonylurea” (Nature Communications, 2014).

What was measured:
[1] = target: T1, SUR1 (Rattus norvegicus, UniProt Q09429); test: [3H]-glibenclamide displacement in SUR1-expressing HEK293t cells under illumination; type: cell-based; design: gene Abcc8
Target sequence in this assay (Q09429 whole entry): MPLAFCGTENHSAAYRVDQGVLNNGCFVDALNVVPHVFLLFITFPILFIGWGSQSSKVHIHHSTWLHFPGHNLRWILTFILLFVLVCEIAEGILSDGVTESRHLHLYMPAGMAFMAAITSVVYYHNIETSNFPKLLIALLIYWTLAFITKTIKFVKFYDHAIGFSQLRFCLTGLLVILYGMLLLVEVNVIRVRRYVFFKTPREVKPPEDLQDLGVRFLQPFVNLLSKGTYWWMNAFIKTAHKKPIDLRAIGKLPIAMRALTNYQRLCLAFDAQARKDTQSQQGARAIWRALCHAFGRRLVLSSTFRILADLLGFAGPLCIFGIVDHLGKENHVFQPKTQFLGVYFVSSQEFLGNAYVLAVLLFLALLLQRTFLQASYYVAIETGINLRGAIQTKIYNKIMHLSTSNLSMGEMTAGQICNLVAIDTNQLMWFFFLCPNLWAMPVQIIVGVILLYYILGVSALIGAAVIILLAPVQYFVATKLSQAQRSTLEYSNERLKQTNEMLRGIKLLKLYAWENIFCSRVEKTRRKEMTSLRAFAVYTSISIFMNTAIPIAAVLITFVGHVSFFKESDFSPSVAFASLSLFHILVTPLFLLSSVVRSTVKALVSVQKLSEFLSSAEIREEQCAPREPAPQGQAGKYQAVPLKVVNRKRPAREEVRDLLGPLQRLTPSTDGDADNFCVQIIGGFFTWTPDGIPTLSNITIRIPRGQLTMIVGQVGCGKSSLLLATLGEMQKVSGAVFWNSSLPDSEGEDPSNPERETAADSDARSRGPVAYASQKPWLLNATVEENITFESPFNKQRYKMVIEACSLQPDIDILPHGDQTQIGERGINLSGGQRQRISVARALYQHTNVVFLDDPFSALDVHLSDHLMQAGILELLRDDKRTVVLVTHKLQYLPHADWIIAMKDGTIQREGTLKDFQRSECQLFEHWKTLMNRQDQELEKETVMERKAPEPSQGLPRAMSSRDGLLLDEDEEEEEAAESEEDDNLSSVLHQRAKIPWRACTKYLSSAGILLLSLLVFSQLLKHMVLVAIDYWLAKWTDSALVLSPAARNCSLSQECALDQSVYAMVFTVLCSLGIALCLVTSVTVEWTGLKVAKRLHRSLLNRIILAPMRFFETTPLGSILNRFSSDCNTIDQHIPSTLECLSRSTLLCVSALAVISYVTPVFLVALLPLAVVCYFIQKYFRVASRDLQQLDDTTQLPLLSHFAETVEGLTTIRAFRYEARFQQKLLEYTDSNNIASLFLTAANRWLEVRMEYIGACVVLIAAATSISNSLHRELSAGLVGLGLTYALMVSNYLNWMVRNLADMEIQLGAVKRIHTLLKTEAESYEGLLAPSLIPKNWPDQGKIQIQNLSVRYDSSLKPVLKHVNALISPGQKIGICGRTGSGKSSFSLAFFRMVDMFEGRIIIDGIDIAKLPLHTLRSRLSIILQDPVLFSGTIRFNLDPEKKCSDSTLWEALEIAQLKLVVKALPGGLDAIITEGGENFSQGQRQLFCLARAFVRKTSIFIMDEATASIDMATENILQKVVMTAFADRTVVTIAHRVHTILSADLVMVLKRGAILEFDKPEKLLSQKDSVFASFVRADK

[2] = target: T1, SUR1; test: whole-cell patch clamp of heterologous KATP channels, […] tolbutamide; type: cell-based; design: gene Abcc8; rat SUR1 (Genbank L40624) co-expressed with Kir6.2 in HEK293t cells; with Kir6.2
Target sequence in this assay (Q09429 whole entry): as above
Target sequence in this assay (Q61743 whole entry partner): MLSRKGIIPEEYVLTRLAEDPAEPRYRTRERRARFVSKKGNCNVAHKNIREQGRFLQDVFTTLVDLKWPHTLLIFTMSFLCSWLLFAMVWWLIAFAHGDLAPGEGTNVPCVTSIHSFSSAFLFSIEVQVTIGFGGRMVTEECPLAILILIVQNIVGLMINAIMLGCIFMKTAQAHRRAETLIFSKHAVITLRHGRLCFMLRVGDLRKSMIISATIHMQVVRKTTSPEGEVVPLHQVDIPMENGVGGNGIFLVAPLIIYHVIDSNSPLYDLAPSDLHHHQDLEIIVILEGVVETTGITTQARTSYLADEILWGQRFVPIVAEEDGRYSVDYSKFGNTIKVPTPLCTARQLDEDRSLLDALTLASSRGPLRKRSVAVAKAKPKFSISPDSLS

| Structure (SMILES) | IC50 [1] | KATP current response [2] |
| --- | --- | --- |
| CCN(CC)c1ccc(/N=N\c2ccc(S(=O)(=O)NC(=O)NC3CCCCC3)cc2)cc1 [JB253, (Z)-N-(cyclohexylcarbamoyl)-4-((4-(diethylamino)phenyl)diazenyl)benzenesulfonamide] | 14.8 µM |  |
| CCCCNC(=O)NS(=O)(=O)c1ccc(C)cc1 [tolbutamide] |  | Tolbutamide and diazoxide-sensitive inward-rectifying K^+ currents could be recorded in transfected cells |
